Source: patent publication US20180118721A1, “PYRIMIDINE DERIVATIVES” (Merck Patent GmbH, priority 2015, published 2018)

Tests used:
[1] = biological target: T1, purified human recombinant MTH1 (human MTH1, residues 42-197) (Homo sapiens, UniProt P36639); assay: MTH1 enzymatic assay (luminescence-based, PPiLight); type: biochemical; conditions: Table 2
T1 construct: human MTH1, residues 42-197, Uniprot-ID: P36639, expressed in E. coli; made in house; host or cells: E. coli

[2] = Microsomal stability (intrinsic clearance), human; type: in vitro ADME; conditions: human liver microsomes, 0.5 mg/ml protein, Clint
Description: A microsomal stability assay is used to measure in vitro clearance (Clint). The assay involves measuring the rate of disappearance of a compound due to its intrinsic attitude to be metabolized (“intrinsic” meaning that the disappearance is not affected by other properties like permeability, binding etc. that play a role when quantifying in vivo clearance). The microsomal stability (intrinsic clearance, Clint) and thus metabolic stability is generally given as μl/min/mg protein. It can be visualized as the volume of solution that 1 mg of microsomes is able to clear of the compound in one minute.
A Tecan Genesis workstation (RSP 150/8) was used for to perform the microsomal incubations. Analysis was carried out using a Waters ACQUITY UPLC system coupled to an ABSciex API3000 mass spectrometer. Data analysis was performed using Assay Explorer (Symyx).
Column: Acquity UPLC BEH C18, 2.1×50 mm, 1.7 μm (Waters) Mobile phases: A=0.1% formic acid in water; B=acetonitrile
Flow rate: 0.750 mL/min; Detection: ESI, MRM; Injection: 10 μL; Column temperature: 50° C.
• Potassium phosphate buffer: 0.05 M potassium phosphate buffer pH 7.4 containing 1 mM MgCl2 • NADPH (nicotinamide adenine dinucleotide phosphate): 22.5 mg NADPH-Na4 in 1.8 ml potassium phosphate buffer • Acetonitrile: 50 Vol % acetonitrile (1 volume acetonitrile, 1 volume water) • DMSO: 20 Vol % DMSO in water • Stock solution of 20 mg/ml human or mouse liver microsomes (protein)/ml in phosphate buffer • Stock solution of 10 mM compound in 100% DMSO
Dilution of test compounds was done in 2 steps starting from a 10 mM stock solution of the respective compound in 100% DMSO. First 4 μl stock solution was added to 196 μl of 20 Vol % DMSO. In a second step, 10 μl of the first dilution were added to 1590 μl potassium phosphate buffer to achieve a final concentration of 1.25 μM in the final compound dilution. Thus, the amount of organic solvent in the assay was kept to a minimum (<1%).
The human or mouse liver microsome (protein) solution to be used in the assay was prepared by mixing 750 μl stock solution (20 mg/ml) and 2250 μl potassium phosphate buffer to a final concentration of 5 mg/ml.
Incubation was carried out on a 96 deep well incubation plate. 160 μl per well of the final compound dilution were transferred onto the incubation plate. Four samples of each compound dilution were assayed. 20 μl/well liver microsome solution was added to each well and the samples were then preincubated for 5 min at 37° C. and 800 rpm agitation. Two reference compounds (verapamil and dextromethorphan) were used in parallel in every experiment and for each species (human or mouse microsomes) to ensure system performance and for comparison.
On a separate stop plate, 160 μl acetonitrile were added per well.
After preincubation, i.e. at time t1=0 minutes, 18 μl samples of incubated compound solution and were transferred and added per well (containing acetonitrile) on the stop plate to prevent a reaction (0 minutes control samples, 4 samples per compound). Equally, 18 μl samples of incubated reference compound solution were transferred and added per well (containing acetonitrile) on the stop plate at time t1=0 minutes and again after 30 minutes (t4), solubility and chemical stability of the compound were checked. […]

## CNc1cc(-c2cccc(Cl)c2Cl)nc(N)n1 [TH-287, reference compound]
[1]
  IC50: < 1 nM
[2]
  Microsomal stability human: 32 μl/min/mg prot.
